TGI and GI50 data for 10 compounds are collected here from PubChem BioAssay (NCI).

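Each compound was tested at five concentrations against cells in 96-well plates for 48 hours. GI50 = concentration required for 50% inhibition of growth. TGI is the concentration that stops growth completely.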

Some test systems named below: IGROV1 ovarian; ACHN renal; HT29 colon; U251 CNS; SN12C renal; UACC-257 melanoma; LOX IMVI melanoma; SF-539 CNS; TK-10 renal; NCI-H522 lung.
Holding throughout (assay): inhibition of tumour cell growth, NCI panel, 48 h

For the compound `CC12CC(Sc3ccccc3N1)c1ccccc1O2` (configuration not stated), the TGI was found to be 48.6 µM in the experiment with IGROV1 ovarian; 31 µM in the experiment on ACHN renal; 35 µM in the experiment with HT29 colon; 26 µM in the experiment with U251 CNS; 36 µM in the experiment with SN12C renal; 27.8 µM in the experiment on UACC-257 melanoma. Further, the TGI worked out at 27 µM with LOX IMVI melanoma, 32.5 µM in the experiment with SF-539 CNS and 51.4 µM in the experiment on TK-10 renal.

Turning to `COc1cc(NC(C)CCCN)c2ncccc2c1Sc1ccc(Cl)cc1` (configuration not stated), the GI50 in the experiment on IGROV1 ovarian was 2.31 µM; in the experiment on ACHN renal, 1.79 µM; in the experiment with HT29 colon, 1.9 µM; with U251 CNS it was 1.51 µM; in the experiment with SN12C renal, 1.62 µM; with UACC-257 melanoma, 1.63 µM. In the experiment on TK-10 renal, the GI50 is 2.01 µM. For the same compound, the TGI with IGROV1 ovarian was 5.31 µM; in the experiment with ACHN renal, 3.22 µM; in the experiment with HT29 colon, 3.5 µM; with U251 CNS, 2.83 µM; in the experiment with SN12C renal, 3.06 µM; in the experiment with UACC-257 melanoma, 3.15 µM. In the experiment with TK-10 renal, this compound returned a TGI of 3.5 µM.

Consider `CN1C(=O)C(=CN(C)c2ccccc2)C(=O)N(C)C1=O`, for which the TGI in the experiment on IGROV1 ovarian, with ACHN renal, in the experiment on U251 CNS, with SN12C renal, in the experiment on UACC-257 melanoma and with LOX IMVI melanoma was above 100 µM in each case. The TGI in the experiment with SF-539 CNS and in the experiment with TK-10 renal was above 100 µM each time.

`C/C=C1\CCC2c3[nH]c4ccccc4c3CCN2C1` (configuration not stated): the TGI in the experiment with IGROV1 ovarian, with ACHN renal, with HT29 colon, in the experiment on NCI-H522 lung, in the experiment with U251 CNS and in the experiment on SN12C renal was above 100 µM throughout. Further, the TGI with SF-539 CNS and in the experiment with TK-10 renal was above 100 µM each time.

Consider `C[C@]12CC[C@@H]3c4ccc(O)cc4CC[C@H]3[C@@H]1CC[C@@H]2NS(=O)(=O)c1ccc2ccccc2c1`, for which the GI50 in the experiment on IGROV1 ovarian is 4.1 µM; with ACHN renal, 2.95 µM; in the experiment on HT29 colon, 2.47 µM; with U251 CNS, 3.6 µM; in the experiment on SN12C renal, 1.94 µM; with UACC-257 melanoma, 3.3 µM. The figures for the GI50 in the experiment on SF-539 CNS and in the experiment on TK-10 renal were 2.11 µM and 3.52 µM, respectively. In addition, the TGI in the experiment with IGROV1 ovarian is 17.2 µM; in the experiment with ACHN renal, 10.5 µM; in the experiment on HT29 colon, 6.11 µM; with U251 CNS, 15.4 µM; in the experiment on SN12C renal, 4.25 µM; in the experiment on UACC-257 melanoma, 17.6 µM. Further, the TGI in the experiment on SF-539 CNS came out at 6.1 µM; with TK-10 renal it was 12.8 µM.

On to `Cn1c(C(C)(C)OC(=O)Oc2ccccc2)cnc1[N+](=O)[O-]`, for which the TGI in the experiment on IGROV1 ovarian, in the experiment on ACHN renal, in the experiment on HT29 colon, in the experiment with NCI-H522 lung, in the experiment on U251 CNS and with SN12C renal was above 100 µM each time. In addition, the TGI with UACC-257 melanoma, with SF-539 CNS and in the experiment on TK-10 renal was above 100 µM in each case.

Turning to `Clc1ccc(C2=NOC3C4CCC(C4)C23)cc1` (configuration not stated), the TGI in the experiment with IGROV1 ovarian, with ACHN renal, in the experiment on HT29 colon, with NCI-H522 lung, in the experiment on U251 CNS and in the experiment on SN12C renal was above 100 µM in each case. Also, the TGI with UACC-257 melanoma, in the experiment on SF-539 CNS and with TK-10 renal was above 100 µM throughout.

Regarding `COc1ccc(C#CC2=C(c3cc(OC)c(OC)c(OC)c3)C(=O)OC2)cc1`, the GI50 is 13.9 µM with IGROV1 ovarian; 5.89 µM in the experiment with ACHN renal; 2.66 µM with HT29 colon; 8.6 µM with NCI-H522 lung; 1.64 µM with U251 CNS; 13 µM with UACC-257 melanoma. Also, the GI50 with SF-539 CNS is 1.29 µM; in the experiment on TK-10 renal, 1.77 µM. The TGI in the experiment with IGROV1 ovarian was above 50 µM; with ACHN renal, 25.3 µM; in the experiment with HT29 colon, above 50 µM; in the experiment with NCI-H522 lung, above 50 µM; in the experiment with U251 CNS it was 6.74 µM; with UACC-257 melanoma, above 50 µM. Also, the TGI in the experiment with SF-539 CNS is 3.26 µM; with TK-10 renal, above 50 µM.

Regarding `CCCCN1CCN(c2ccc3nc(-c4ccc5nc(-c6ccc(OCC)c(OCC)c6)[nH]c5c4)[nH]c3c2)CC1`, the GI50 was 0.922 µM with ACHN renal; 0.802 µM with HT29 colon; 1.2 µM with NCI-H522 lung; 1.28 µM with U251 CNS; 1.21 µM in the experiment on UACC-257 melanoma; 1.26 µM in the experiment with SF-539 CNS. Also, the GI50 in the experiment with TK-10 renal is 1.66 µM. Besides, the TGI in the experiment on ACHN renal worked out at 2.12 µM; in the experiment with HT29 colon it was 2.97 µM; in the experiment on NCI-H522 lung, 3.97 µM; in the experiment on U251 CNS, 2.69 µM; in the experiment with UACC-257 melanoma, 10.5 µM; in the experiment on SF-539 CNS, 2.56 µM. Also, the TGI with TK-10 renal was found to be 5.17 µM.

Turning to `O=C(Sc1sc(=S)sc1SC(=O)c1ccccc1)c1ccccc1`, the TGI is above 100 µM with IGROV1 ovarian; above 100 µM with ACHN renal; above 100 µM in the experiment on HT29 colon; above 100 µM with NCI-H522 lung; 80.7 µM in the experiment on U251 CNS; above 100 µM in the experiment with SN12C renal. In addition, the TGI in the experiment on UACC-257 melanoma, in the experiment with SF-539 CNS and in the experiment on TK-10 renal was above 100 µM in each case.
